ChEMBL document CHEMBL1146347, “Carinatumins A-C, new alkaloids from Lycopodium carinatum inhibiting acetylcholinesterase” (Bioorg Med Chem, 2007)

These compounds were tested against T1, Acetylcholinesterase (Bos taurus, UniProt P23795) (assay: Inhibition of bovine erythrocyte acetylcholinesterase).
T1 sequence (P23795 whole entry): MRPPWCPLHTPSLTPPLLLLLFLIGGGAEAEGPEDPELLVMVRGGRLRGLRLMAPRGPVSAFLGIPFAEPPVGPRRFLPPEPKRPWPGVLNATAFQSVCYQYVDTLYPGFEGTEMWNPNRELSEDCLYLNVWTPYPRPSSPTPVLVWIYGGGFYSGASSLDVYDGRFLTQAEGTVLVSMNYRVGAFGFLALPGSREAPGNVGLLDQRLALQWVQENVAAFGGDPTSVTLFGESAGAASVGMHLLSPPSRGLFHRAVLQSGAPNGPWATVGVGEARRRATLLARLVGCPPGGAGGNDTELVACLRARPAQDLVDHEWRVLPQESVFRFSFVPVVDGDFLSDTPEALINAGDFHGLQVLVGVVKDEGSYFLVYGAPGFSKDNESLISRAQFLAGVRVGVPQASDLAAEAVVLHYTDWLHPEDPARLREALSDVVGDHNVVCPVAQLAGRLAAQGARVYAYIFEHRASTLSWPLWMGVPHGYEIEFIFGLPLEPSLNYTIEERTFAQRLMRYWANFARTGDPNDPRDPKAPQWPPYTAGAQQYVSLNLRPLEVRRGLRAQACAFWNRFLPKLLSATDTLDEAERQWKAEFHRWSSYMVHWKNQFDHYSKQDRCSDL

| Compound | IC50 [µM] |
| --- | --- |
| C[C@H]1C[C@@H](CC2=[N+]([O-])CCCC2)[C@@H]2CCCN[C@H]2C1 | > 100 |
| CC1=C[C@H]2Cc3[nH]c(=O)ccc3[C@]3(C1)NCC[C@@H](O)[C@H]23 [CARINATUMINS B (2)] | 7 |
| CC1=C[C@H]2Cc3[nH]c(=O)ccc3[C@](N)(C1)/C2=C/CO | 4.6 |
